Results published in US20160159814A1, “GLYCINE TRANSPORTER INHIBITOR” (TAISHO PHARMACEUTICAL CO., LTD., priority 2013, published 2016).
Where two headings read alike, the source gives them in different places.

Molecular target: T1, human type 1 glycine transporter (GlyT1) (Homo sapiens, UniProt P48067)
T1 construct: T98G cells (glioma cells) expressing human type 1 glycine transporter (GlyT1) were used; endogenous in cells; host or cells: T98G cells (human glioma cells)
T1 sequence (P48067 1-706): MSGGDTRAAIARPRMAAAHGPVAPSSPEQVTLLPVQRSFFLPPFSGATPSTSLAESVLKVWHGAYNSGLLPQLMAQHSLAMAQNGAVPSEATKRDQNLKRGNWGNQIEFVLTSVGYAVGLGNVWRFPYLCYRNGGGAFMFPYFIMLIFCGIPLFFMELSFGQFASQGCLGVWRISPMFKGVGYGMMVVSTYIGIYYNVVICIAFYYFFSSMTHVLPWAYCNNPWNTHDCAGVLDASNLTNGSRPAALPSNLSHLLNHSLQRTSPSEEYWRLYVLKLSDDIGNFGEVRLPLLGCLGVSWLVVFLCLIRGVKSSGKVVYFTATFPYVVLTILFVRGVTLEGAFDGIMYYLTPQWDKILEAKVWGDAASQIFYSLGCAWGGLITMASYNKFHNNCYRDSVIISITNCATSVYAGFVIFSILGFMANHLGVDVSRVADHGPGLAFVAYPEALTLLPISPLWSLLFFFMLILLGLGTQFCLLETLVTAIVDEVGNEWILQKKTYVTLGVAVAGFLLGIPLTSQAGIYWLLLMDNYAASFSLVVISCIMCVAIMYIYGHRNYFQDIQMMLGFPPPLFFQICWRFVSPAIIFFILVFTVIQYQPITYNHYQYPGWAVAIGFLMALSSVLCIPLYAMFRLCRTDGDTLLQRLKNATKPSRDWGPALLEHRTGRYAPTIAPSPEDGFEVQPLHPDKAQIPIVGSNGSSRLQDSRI
Assay: Glycine uptake inhibition experiment ([3H] glycine uptake in T98G cells expressing GlyT1)
Assay type: cell-based
How it was run: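 T98G glioma cells expressing human GlyT1 were pretreated 10 min with compound in HEPES buffer pH 7.4 (0.2% BSA), then incubated with compound plus 250 nM final [3H]glycine for 15 min at room temperature. Intracellular radioactivity was counted after NaOH lysis; 10 μM ALX5407 defined non-specific uptake. IC50 came from 10^−9–10^−5 M curves.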

[1] = table section whose head prints (μm)

Row | IC50 (glycine uptake inhibition) | SMILES | further results
1 | 98 nM | CC(O)c1cccc2c1C(F)(F)C(=O)N2Cc1ccnc(C#N)c1 (stereo not shown) [Compound 28] | –
2 | 77 nM | CC(O)c1cccc2c1C(F)(F)C(=O)N2Cc1ccnc(F)c1 (stereo not shown) [Compound 29, 3,3-difluoro-1-[(2-fluoropyridin-4-yl)methyl]-4-(1-hydroxyethyl)-1,3-dihydro-2H-indol-2-one] | –
3 | 54 nM | CC(O)c1cccc2c1C(F)(F)C(=O)N2Cc1nc2ccccc2c(=O)n1C (stereo not shown) [Compound 30, 2-{[3,3-difluoro-4-(1-hydroxyethyl)-2-oxo-2,3-dihydro-1H-indol-1-yl]methyl)-3-methylquinazolin-4(3H)-one] | –
4 | 350 nM | O=C1N(Cc2ccnc(Cl)c2)c2cccc([C@H](O)C(F)(F)F)c2C1(F)F [Compound 31, 1-[(2-chloropyridin-4-yl)methyl]-3,3-difluoro-4-[(1S)-2,2,2-trifluoro-1-hydroxyethyl]-1,3-dihydro-2H-indol-2-one] | –

Continued, molecule first:

Row | SMILES | IC50 (glycine uptake inhibition) | further results
5 | O=C1N(Cc2cc(Cl)c(F)cn2)c2cccc(C(O)C(F)F)c2C1(F)F (single isomer, unassigned) [Compound 266, 1-[(4-chloro-5-fluoropyridin-2-yl)methyl]-4-(2,2-difluoro-1-hydroxyethyl)-3,3-difluoro-1,3-dihydro-2H-indol-2-one] | – | IC50 [1]: 21 nM
6 | N#Cc1nccc(CN2C(=O)C(F)(F)c3c(C(O)C(F)F)cccc32)c1Cl (single isomer, unassigned) [Compound 267] | – | IC50 [1]: 260 nM
7 | O=C1N(Cc2cc(C(F)(F)F)c(Cl)cn2)c2cccc(C(O)C(F)F)c2C1(F)F (single isomer, unassigned) [Compound 268, 1-{[5-chloro-4-(trifluoromethyl)pyridin-2-yl]methyl)-4-(2,2-difluoro-1-hydroxyethyl)-3,3-difluoro-1,3-dihydro-2H-indol-2-one] | – | IC50 [1]: 16 nM
8 | O=C1N(Cc2cnc(Cl)cc2Cl)c2cccc(C(O)C(F)F)c2C1(F)F (single isomer, unassigned) [Compound 269, 1-[(4,6-dichloropyridin-3-yl)methyl]-4-(2,2-difluoro-1-hydroxyethyl)-3,3-difluoro-1,3-dihydro-2H-indol-2-one] | – | IC50 [1]: 330 nM
9 | N#Cc1nc(CN2C(=O)C(F)(F)c3c(C(O)C(F)F)cccc32)ccc1C(F)(F)F (single isomer, unassigned) [Compound 270, 6-{[4-(2,2-difluoro-1-hydroxyethyl)-3,3-difluoro-2-oxo-2,3-dihydro-1H-indol-1-yl]methyl}-3-(trifluoromethyl) pyridine-2-carbonitrile] | – | IC50 [1]: 8.4 nM
10 | N#Cc1nc(CN2C(=O)C(F)(F)c3c(C(O)C(F)F)cccc32)ccc1Cl (single isomer, unassigned) [Compound 271, 3-chloro-6-{[4-(2,2-difluoro-1-hydroxyethyl)-3,3-difluoro-2-oxo-2,3-dihydro-1H-indol-1-yl]methyl}pyridine-2-carbonitrile] | – | IC50 [1]: 5.5 nM
11 | N#Cc1cc(CN2C(=O)C(F)(F)c3c(C(O)C(F)F)cccc32)cnc1F (single isomer, unassigned) [Compound 272, 5-{[4-(2,2-difluoro-1-hydroxyethyl)-3,3-difluoro-2-oxo-2,3-dihydro-1H-indol-1-yl]methyl}-2-fluoropyridine-3-carbonitrile] | – | IC50 [1]: 27 nM
12 | COc1cc(CN2C(=O)C(F)(F)c3c(C(O)C(F)F)cccc32)cnc1F (single isomer, unassigned) [Compound 273, 4-(2,2-difluoro-1-hydroxyethyl)-3,3-difluoro-1-[(6-fluoro-5-methoxypyridin-3-yl)methyl]-1,3-dihydro-2H-indol-2-one] | – | IC50: 140 nM
13 | O=C1N(Cc2ccc(F)c(Br)n2)c2cccc(C(O)C(F)F)c2C1(F)F (single isomer, unassigned) [Compound 274, 1-[(6-bromo-5-fluoropyridin-2-yl)methyl]-4-(2,2-difluoro-1-hydroxyethyl)-3,3-difluoro-1,3-dihydro-2H-indol-2-one] | – | IC50: 4.6 nM
14 | N#Cc1nc(CN2C(=O)C(F)(F)c3c(C(O)C(F)F)cccc32)ccc1F (single isomer, unassigned) [Compound 275, 6-{[4-(2,2-difluoro-1-hydroxyethyl)-3,3-difluoro-2-oxo-2,3-dihydro-1H-indol-1-yl]methyl}-3-fluoropyridine-2-carbonitrile] | – | IC50: 9.1 nM
15 | N#Cc1cc(Cl)cnc1CN1C(=O)C(F)(F)c2c(C(O)C(F)F)cccc21 (single isomer, unassigned) [Compound 276, 5-chloro-2-{[4-(2,2-difluoro-1-hydroxyethyl)-3,3-difluoro-2-oxo-2,3-dihydro-1H-indol-1-yl]methyl}pyridine-3-carbonitrile] | – | IC50: 200 nM
16 | CCOc1ccc(CN2C(=O)C(F)(F)c3c(C(O)C(F)F)cccc32)cn1 (single isomer, unassigned) [Compound 278, 4-(2,2-difluoro-1-hydroxyethyl)-1-[(6-ethoxypyridin-3-yl)methyl]-3,3-difluoro-1,3-dehydro-2H-indol-2-one] | – | IC50: 210 nM
17 | CC(O)c1cccc2c1C(F)(F)C(=O)N2Cc1cccc(Cl)n1 (stereo not shown) [Compound 1, 1-[(6-chloropyridin-2-yl)methyl]-3,8-difluoro-4-(1-hydroxyethyl)-1,3-dihydro-2H-indol-2-one] | 15 nM | –
18 | O=C1N(Cc2cccc(Cl)n2)c2cccc(C(O)C(F)(F)F)c2C1(F)F (stereo not shown) [Compound 2, 1-[(6-chloropyridin-2-yl)methyl]-3,3-difluoro-4-(2,2,2-trifluoro-1-hydroxyethyl)-1,3-dihydro-2H-indol-2-one] | 51 nM | –
19 | CC(O)c1cccc2c1C(F)(F)C(=O)N2Cc1cncc(Cl)c1 (stereo not shown) [Compound 3, 1-[(5-chloropyridin-3-yl)methyl]-3,3-difluoro-4-(1-hydroxyethyl)-1,3-dihydro-2H-indol-2-one] | 32 nM | –
20 | O=C1N(Cc2cccc(Cl)n2)c2cccc(C(O)C(F)F)c2C1(F)F (stereo not shown) [Compound 10, 1-[(6-chloropyridin-2-yl)methyl]-4-(2,2-difluoro-1-hydroxyethyl)-3,3-difluoro-1,3-dihydro-2H-indol-2-one] | 27 nM | –
21 | O=C1N(Cc2cccc(Cl)n2)c2cccc(C(O)CF)c2C1(F)F (stereo not shown) [Compound 11, 1-[(6-chloropyridin-2-yl)methyl]-3,3-difluoro-4-(2-fluoro-1-hydroxyethyl)-1,3-dihydro-2H-indol-2-one] | 17 nM | –
22 | CC(C)(O)c1cccc2c1C(F)(F)C(=O)N2Cc1cccc(Cl)n1 [Compound 12, 1-[(6-chloropyridin-2-yl)methyl]-3,3-difluoro-4-(2-hydroxypropan-2-yl)-1,3-dihydro-2H-indol-2-one] | 700 nM | –
23 | N#Cc1cccc(CN2C(=O)C(F)(F)c3c(C(O)C(F)(F)F)cccc32)n1 (stereo not shown) [Compound 13, 6-{[3,3-difluoro-2-oxo-4-(2,2,2-trifluoro-1-hydroxyethyl)-2,3-dihydro-1H-indol-1-yl]methyl}pyridine-2-carbonitrile] | 96 nM | –
24 | N#Cc1cc(CN2C(=O)C(F)(F)c3c(C(O)C(F)(F)F)cccc32)ccn1 (stereo not shown) [Compound 14, 4-{[3,3-difluoro-2-oxo-4-(2,2,2-trifluoro-1-hydroxyethyl)-2,3-dihydro-1H-indol-1-yl]methyl}pyridine-2-carbonitrile] | 120 nM | –
25 | CCC(O)c1cccc2c1C(F)(F)C(=O)N2Cc1cccc(Cl)n1 (stereo not shown) [Compound 15, 1-[(6-chloropyridin-2-yl)methyl]-3,3-difluoro-4-(1-hydroxypropyl)-1,3-dihydro-2H-indol-2-one] | 180 nM | –
26 | O=C1N(Cc2cccc(Cl)n2)c2cccc(CO)c2C1(F)F [Compound 16, 1-[(6-chloropyridin-2-yl)methyl]-3,3-difluoro-4-(hydroxymethyl)-1,3-dihydro-2H-indol-2-one] | 140 nM | –
27 | O=C1N(Cc2cncc(Cl)c2)c2cccc(C(O)C(F)(F)F)c2C1(F)F (stereo not shown) [Compound 17, 1-[(5-chloropyridin-3-yl)methyl]-3,3-difluoro-4-(2,2,2-trifluoro-1-hydroxyethyl)-1,3-dihydro-2H-indol-2-one] | 72 nM | –
28 | O=C1N(Cc2cccc(Cl)n2)c2cccc(C3(O)CCC3)c2C1(F)F [Compound 24, 1-[(6-chloropyridin-2-yl)methyl]-3,3-difluoro-4-(1-hydroxycyclobutyl)-1,3-dihydro-2H-indol-2-one] | 5900 nM | –
29 | O=C1N(Cc2cccc(Cl)n2)c2cccc(C3(O)COC3)c2C1(F)F [Compound 25, 1-[(6-chloropyridin-2-yl)methyl]-3,3-difluoro-4-(3-hydroxyoxetan-3-yl)-1,3-dihydro-2H-indol-2-one] | 7600 nM | –
30 | O=C1N(Cc2cccc(Cl)n2)c2cccc(C3(O)CC3)c2C1(F)F [Compound 26, 1-[(6-chloropyridin-2-yl)methyl]-3,3-difluoro-4-(1-hydroxycyclo-propyl)-1,3-dihydro-2H-indol-2-one] | 1500 nM | –
31 | CC(O)c1cccc2c1C(F)(F)C(=O)N2Cc1ccnc(Cl)c1 (stereo not shown) [Compound 27, 1-[(2-chloropyridin-4-yl)methyl]-3,3-difluoro-4-(1-hydroxyethyl)-1,3-dihydro-2H-indol-2-one] | 23 nM | –
